SMILES strings stand for the structures.

Holding throughout (assay type): functional
Assay [1] is described as follows: Anthelmintic activity against Nematospiroides dubius when the dose was administered orally in mouse. Also noted: concentration or dose not given beside the values.
A further assay deals with Rodentolepis nana. The experiment in a line: Evaluation for antihelminthic activity against Hymenolepis nana when the dose was administered orally in mouse.
For assay [2], the species on record is Mus musculus. The experiment in a line: Compound was evaluated for antihelminthic activity in the diet against Nematospiroides dubius in mice at a concentration 0.025%.
For assay [3], the species on record is Mus musculus. The assay is described as follows: Compound was evaluated for antihelminthic activity in the diet against Nematospiroides dubius in mice at a concentration 0.05%.
Assay [4] is filed under the species Mus musculus. The assay is described as follows: Compound was evaluated for antihelminthic activity in the diet against Nematospiroides dubius in mice at a concentration 0.013%.
For assay [5], the species on record is Mus musculus. The assay is described as follows: Compound was evaluated for antihelminthic activity in the diet against Nematospiroides dubius in mice at a concentration 0.1%.
Assay [6] is filed under the species Mus musculus. The assay is described as follows: Compound was evaluated for antihelminthic activity in the diet against Nematospiroides dubius in mice at concentration 0.2%.
In assay [7] the test system is Mus musculus. The assay is described as follows: Compound was evaluated for antihelminthic activity against Hymenolepis nana when the dose was administered subcutaneously in mouse.
In assay [8] the test system is Mus musculus. The experiment in a line: Compound was evaluated for antihelminthic activity against Hymenolepis nana when the dose was administered orally in mouse after destrobilization.

For `[O-][n+]1ccc(-c2ncon2)cc1`, the Activity (in assay [1]; in the assay on Rodentolepis nana) was 0% throughout.
On to `Nc1ccc(-c2ncon2)cc1`, for which the Activity (in assay [1]; in the assay with Rodentolepis nana) was 0% throughout.
On to `S=C=Nc1ccc(-c2noc(C3CCCCC3)n2)cc1`, for which the Activity in [1] came out at 0%; in the assay on Rodentolepis nana it was 25%.
With `Fc1ccc(-c2noc(-c3ccc(N=C=S)cc3)n2)cc1`, the Activity (in assay [1]; in the assay with Rodentolepis nana) was 0% in each case.
`COCCc1nc(-c2ccc(N=C=S)cc2)no1`: the Activity (in assay [1]; in the assay with Rodentolepis nana) was 0% each time.
Take `S=C=Nc1cc(-c2nc(-c3ccco3)no2)ccc1Cl`: the results for the Activity (in [1]; with Rodentolepis nana) were 0% and 100%, respectively.
As to `COC(=O)Nc1cc(-c2nc(-c3ccco3)no2)ccc1Cl`, the Activity (in [1]; in the assay with Rodentolepis nana) was 0% throughout.
For `O=[N+]([O-])CCc1nc(-c2ccccc2)no1`, the Activity (in assay [1]; in the assay with Rodentolepis nana) was 0% throughout.
Turning to `Nc1ccc(-c2nc(-c3ccco3)no2)c(Cl)c1`, the Activity (in assay [1]; in the assay on Rodentolepis nana) was 0% in each case.
With `CCCCCCCCCCCc1nc(N)no1`, the Activity was determined as 35% in the assay listed under Mus musculus [2]; 46% in the assay listed under Mus musculus [3]; 8% in the assay listed under Mus musculus [4]; 70% in the assay filed under Mus musculus [5]; 93% in the assay listed under Mus musculus [6].
As to `Nc1ccc(-c2nc(-c3ccc(Cl)cc3)no2)cc1`, the Activity (in assay [1]; in the assay on Rodentolepis nana) was 0% each time.
On to `c1ccc(-c2nc(CCn3cnc4ccccc43)no2)cc1`, for which the Activity (in assay [1]; with Rodentolepis nana) was 0% in each case.
Turning to `S=C=Nc1ccc(-c2noc(-c3ccccn3)n2)cc1`, the Activity (in [1]; with Rodentolepis nana) was 0% in each case.
As to `S=C=Nc1ccc(-c2noc(C34CC5CC(CC(C5)C3)C4)n2)cc1`, the Activity (in assay [1]; with Rodentolepis nana) was 0% each time.
As for `c1ccc(-c2nc(CCn3c(-c4cscn4)nc4ccccc43)no2)cc1`, the Activity is 17% in assay [1] and 0% in the assay with Rodentolepis nana.
For `S=C=Nc1ccc(-c2noc(C3CC3)n2)cc1`, in that order: 0% and 0%.
Taken in the same sequence, the figures for `S=C=Nc1ccc(-c2nc(-c3cccs3)no2)cc1` were 22% and 33%.
With `O=[N+]([O-])c1ccc2ncn(CCc3noc(-c4ccccc4)n3)c2c1`, the Activity (in assay [1]; with Rodentolepis nana) was 0% each time.
Turning to `O=C(Nc1ccc(-c2ncon2)cc1)Oc1ccccc1`, the Activity (in assay [1]; in the assay on Rodentolepis nana) was 0% throughout.
Regarding `COc1cc(-c2nc(-c3ccc(N=C=S)cc3)no2)cc(OC)c1OC`, the Activity (in assay [1]; in the assay with Rodentolepis nana) was 0% each time.
Turning to `S=C=Nc1ccc(-c2noc(CCl)n2)cc1`, the results for the Activity (in [1]; in the assay on Rodentolepis nana) were 38% and 0%, respectively.
For `S=C=Nc1ccc(-c2nc(-c3ccccn3)no2)cc1`, in that order: 0% and 0%.
Taken in the same sequence, the figures for `Nc1cc(-c2nc(-c3ccco3)no2)ccc1Cl` were 0% and 0%.
Taken in the same sequence, the figures for `C(=N/c1ccc(-c2ncon2)cc1)/c1ccc[nH]1` were 0% and 0%.
For the molecule `S=C=Nc1ccc(-c2noc(-c3cccs3)n2)cc1`, the Activity in [1] was determined as 57%; in the assay with Rodentolepis nana, 25%.
Consider `Nc1ccc(-c2nc(-c3ccc(F)cc3)no2)cc1`, for which the Activity was determined as 18% in assay [1] and 0% with Rodentolepis nana.
Take `Clc1ccc(/C=N/c2ccc(-c3ncon3)cc2)cc1`: the Activity (in [1]; with Rodentolepis nana) was 0% each time.
Consider `S=C=Nc1cccc(-c2ncon2)c1`, for which the Activity (in assay [1]; in the assay on Rodentolepis nana) was 0% throughout.
Regarding `S=C=Nc1cc(-c2ncon2)ccc1Cl`, the Activity (in assay [1]; with Rodentolepis nana) was 0% each time.
Consider `O=C(Nc1cc(-c2nc(-c3ccco3)no2)ccc1Cl)Oc1ccccc1`, for which the Activity (in assay [1]; in the assay with Rodentolepis nana) was 0% each time.
Regarding `CCc1nc(-c2ccc(N=C=S)cc2)no1`, the values for the Activity (in [1]; in the assay with Rodentolepis nana) were 30% and 0%, respectively.
Turning to `CCOC(=O)Cc1nc(-c2ccc(N=C=S)cc2)no1`, the Activity (in assay [1]; with Rodentolepis nana) was 0% throughout.
As to `CC(=O)Oc1ccccc1-c1nc(-c2ccc(N=C=S)cc2)no1`, the Activity (in assay [1]; with Rodentolepis nana) was 0% in each case.
Take `Fc1ccc(-c2nc(-c3ccc(N=C=S)cc3)no2)cc1`: the Activity in assay [1] is 42%; with Rodentolepis nana, 0%.
For `O=C(Nc1ccc(-c2nc(-c3ccco3)no2)c(Cl)c1)OCC(Cl)(Cl)Cl`, in that order: 0% and 0%.
For `Clc1ccc(-c2ncon2)cc1`, the Activity in the assay filed under Mus musculus [2] stood at 61%; in the assay filed under Mus musculus [3] it was 95%; in the assay filed under Mus musculus [4] it was 36%; in the assay filed under Mus musculus [5], 100%.
For the molecule `S=C=Nc1ccc(-c2ncon2)cc1`, the Activity turned out to be 100% with Mus musculus [7]; 82% in the assay listed under Mus musculus [2]; 0% in the assay on Mus musculus [8]; 96% in the assay filed under Mus musculus [3]; 100% in assay [1]; 48% in the assay listed under Mus musculus [4]. The Activity in the assay listed under Mus musculus [5] and in the assay filed under Mus musculus [6] was 100% each time.
`CCN(CC)/C(S)=N\c1cc(-c2nc(-c3ccco3)no2)ccc1Cl`: the Activity (in assay [1]; with Rodentolepis nana) was 0% each time.
As to `CCN(CC)/C(S)=N\c1ccc(-c2nc(-c3ccco3)no2)c(Cl)c1`, the Activity (in assay [1]; in the assay with Rodentolepis nana) was 0% in each case.
Turning to `S=C=Nc1cccc(-c2noc(-c3ccco3)n2)c1`, the figures for the Activity (in assay [1]; with Rodentolepis nana) were 0% and 50%, respectively.
As for `S=C=Nc1ccc(-c2noc(-c3ccc(Cl)cc3)n2)cc1`, the Activity (in assay [1]; in the assay on Rodentolepis nana) was 0% each time.
`CN1CCN(Cc2nc(-c3ccc(N=C=S)cc3)no2)CC1`: the Activity (in assay [1]; in the assay on Rodentolepis nana) was 0% each time.
`S=C=Nc1ccc(-c2nc(-c3ccco3)no2)c(Cl)c1`: the Activity in assay [1] is listed as 0%; in the assay with Rodentolepis nana, 100%.
For `S=C=Nc1ccc(-c2nc(-c3ccco3)no2)cc1`, in that order: 90% and 100%.
Consider `S=C=Nc1cc(-c2nc(-c3ccco3)no2)ccc1Sc1ccccc1`, for which the Activity (in assay [1]; in the assay on Rodentolepis nana) was 0% in each case.
As to `C(=C\c1cccs1)/c1noc(/C=C/c2cccs2)n1`, the Activity (in assay [1]; in the assay on Rodentolepis nana) was 0% each time.
With `O=C(Nc1cc(-c2nc(-c3ccco3)no2)ccc1Cl)OCC(Cl)(Cl)Cl`, the Activity (in assay [1]; in the assay with Rodentolepis nana) was 0% each time.
Turning to `S=C=Nc1ccc(-c2noc(CCc3ccccc3)n2)cc1`, the Activity (in [1]; in the assay on Rodentolepis nana) was 0% in each case.
For the molecule `CCOC(=O)c1nc(-c2ccc(N=C=S)cc2)no1`, the Activity (in assay [1]; in the assay on Rodentolepis nana) was 0% each time.
Take `O=C(Nc1ccc(-c2nc(-c3ccco3)no2)c(Cl)c1)Oc1ccccc1`: the Activity (in [1]; in the assay with Rodentolepis nana) was 0% throughout.
Take `O=[N+]([O-])c1ccc(/C=N\c2ccc(-c3ncon3)cc2)o1`: the Activity (in assay [1]; in the assay on Rodentolepis nana) was 0% throughout.
Turning to `CSc1nc(-c2ccccc2)no1`, the Activity in the assay filed under Mus musculus [2] is 67%; in the assay listed under Mus musculus [3], 96%; in the assay filed under Mus musculus [4], 39%; in the assay filed under Mus musculus [5] it was 94%; in the assay filed under Mus musculus [6] it was 98%.
Take `S=C=Nc1ccc(-c2nc(-c3ccc(Cl)cc3)no2)cc1`: the Activity (in [1]; in the assay with Rodentolepis nana) was 0% in each case.
On to `c1cc(-c2ncon2)ccn1`, for which the Activity (in assay [1]; in the assay on Rodentolepis nana) was 0% in each case.
On to `COC(=O)Nc1ccc(-c2nc(-c3ccco3)no2)c(Cl)c1`, for which the Activity (in assay [1]; with Rodentolepis nana) was 0% each time.
Turning to `O=[N+]([O-])c1cc(/C=N/c2ccc(-c3ncon3)cc2)ccc1Cl`, the Activity (in assay [1]; with Rodentolepis nana) was 0% throughout.
Regarding `S=C=Nc1ccc(-c2noc(-c3ccco3)n2)cc1`, the Activity is recorded as 72% in [1] and 0% in the assay on Rodentolepis nana.
`c1ccc2[nH]c(-c3cscn3)nc2c1` [THIABENDAZOLE]: the Activity in the assay listed under Mus musculus [2] is recorded as 81%; in the assay filed under Mus musculus [3], 94%; in the assay filed under Mus musculus [4] it was 47%; in the assay listed under Mus musculus [5] it was 100%; in the assay filed under Mus musculus [6] it was 100%.

Values taken from ChEMBL document CHEMBL1123032, “Antiparasitic agents. 6. Synthesis and anthelmintic activities of novel isothiocyanatophenyl-1,2,4-oxadiazoles” (1985).
